Test results reported in ChEMBL document CHEMBL3885861, “Open TG-GATES”.

Organism: Rattus norvegicus
Assay: Open TG-GATES - Regimen: Single
Type: toxicity, organism-based, Sprague-Dawley
Design: regimen Single, gender Male, age 6 weeks
Details: in vivo, po, route gavage; for Bas / Eos / Fbg / Hb / Ht / Lym / MCHC / MCV / Mono / Neu / RBC / Ret / WBC / Plat: tissue Blood; for KIDNEY_TOTAL: tissue Kidney; for LIVER: tissue Liver; for ALT / AST / BUN / CRE / Ca / Cl / DBIL / GLC / IP / K / LDH / Na / PL / RALB / TBIL / TC / TP / gamma-GTP: tissue Plasma
[1] = 0 mg/kg, 3 h, dose level Control
[2] = 0 mg/kg, 6 h, dose level Control
[3] = 0 mg/kg, 9 h, dose level Control
[4] = 0 mg/kg, 24 h, dose level Control

## C[C@@H]1C[C@H]2[C@@H]3CCC4=CC(=O)C=C[C@]4(C)[C@@]3(F)[C@@H](O)C[C@]2(C)[C@@]1(O)C(=O)CO [DEXAMETHASONE]
[1]
  TERMINAL_BW: 213.8 g
  Bas: 0%
  Eos: 1%
  Fbg: 235.6 mg/dL
  Hb: 13 g/dL
  Ht: 39.6%
  Lym: 74.6%
  MCHC: 32.7%
  MCV: 64.5 fL
  Mono: 7%
  Neu: 18%
  RBC: 615 x10_4/ul
  Ret: 8.3%
  WBC: 98.2 x10_2/uL
  KIDNEY_TOTAL: 0.6 g
  LIVER: 10.5 g
  ALT: 38.4 IU/L
  AST: 70.4 IU/L
  BUN: 11.2 mg/dL
  CRE: 0.4 mg/dL
  Ca: 10.9 mg/dL
  Cl: 103.4 meq/L
  DBIL: 0.012 mg/dL
  GLC: 193.2 mg/dL
  IP: 9.8 mg/dL
  K: 4.1 meq/L
  LDH: 79.4 IU/L
  Na: 140.8 meq/L
  PL: 140.6 mg/dL
  RALB: 3.7 g/dL
  TBIL: 0.044 mg/dL
  TC: 79 mg/dL
  TP: 5.3 g/dL
  gamma-GTP: 0.8 IU/L
[2]
  TERMINAL_BW: 209.7 g
  Bas: 0%
  Eos: 0.6%
  Fbg: 234.6 mg/dL
  Hb: 13.3 g/dL
  Ht: 40.4%
  Lym: 80.6%
  MCHC: 32.9%
  MCV: 64.6 fL
  Mono: 4.4%
  Plat: 118.9 x10_4/uL
  RBC: 627.4 x10_4/ul
  Ret: 7.5%
  WBC: 103.8 x10_2/uL
  KIDNEY_TOTAL: 0.7 g
  LIVER: 9.7 g
  ALT: 34.2 IU/L
  AST: 65.2 IU/L
  BUN: 10.2 mg/dL
  CRE: 0.4 mg/dL
  Ca: 11 mg/dL
  Cl: 103.8 meq/L
  DBIL: 0.014 mg/dL
  GLC: 164.8 mg/dL
  IP: 9.5 mg/dL
  K: 4.3 meq/L
  LDH: 74.2 IU/L
  Na: 140.2 meq/L
  PL: 149.6 mg/dL
  RALB: 3.9 g/dL
  TBIL: 0.06 mg/dL
  TC: 84.8 mg/dL
  TP: 5.6 g/dL
  gamma-GTP: 0 IU/L
[3]
  TERMINAL_BW: 215.1 g
  Bas: 0%
  Eos: 1%
  Fbg: 233.2 mg/dL
  Hb: 13.2 g/dL
  Ht: 39.9%
  Lym: 73.2%
  MCHC: 33%
  MCV: 63.7 fL
  Mono: 7%
  Neu: 19%
  Plat: 125.1 x10_4/uL
  RBC: 626.8 x10_4/ul
  Ret: 7.8%
  WBC: 104.7 x10_2/uL
  KIDNEY_TOTAL: 0.7 g
  LIVER: 9.4 g
  ALT: 30.6 IU/L
  AST: 59.4 IU/L
  BUN: 11 mg/dL
  CRE: 0.3 mg/dL
  Ca: 10.5 mg/dL
  Cl: 104 meq/L
  DBIL: 0.01 mg/dL
  GLC: 171.4 mg/dL
  IP: 10.1 mg/dL
  K: 4.4 meq/L
  LDH: 80.4 IU/L
  Na: 140.8 meq/L
  PL: 141.8 mg/dL
  RALB: 3.8 g/dL
  TBIL: 0.046 mg/dL
  TC: 82.8 mg/dL
  TP: 5.5 g/dL
  gamma-GTP: 0.8 IU/L
[4]
  TERMINAL_BW: 229.3 g
  Bas: 0%
  Eos: 1%
  Fbg: 239.6 mg/dL
  Hb: 13.2 g/dL
  Ht: 40.1%
  Lym: 73.4%
  MCHC: 33%
  MCV: 65.6 fL
  Mono: 10.2%
  Neu: 15.6%
  Plat: 124.7 x10_4/uL
  RBC: 611.2 x10_4/ul
  Ret: 7.6%
  WBC: 107 x10_2/uL
  KIDNEY_TOTAL: 0.7 g
  LIVER: 11.3 g
  ALT: 40.6 IU/L
  AST: 67.2 IU/L
  BUN: 15.8 mg/dL
  CRE: 0.4 mg/dL
  Ca: 10.9 mg/dL
  Cl: 103 meq/L
  DBIL: 0.014 mg/dL
  GLC: 192.6 mg/dL
  IP: 8 mg/dL
  K: 4.4 meq/L
  LDH: 89.8 IU/L
  Na: 140 meq/L
  PL: 172.2 mg/dL
  RALB: 3.9 g/dL
  TBIL: 0.04 mg/dL
  TC: 95.4 mg/dL
  TP: 5.7 g/dL
  gamma-GTP: 0 IU/L
1 mg/kg, 3 h, dose level Low
  TERMINAL_BW: 220.4 g
  Bas: 0%
  Eos: 0.4%
  Fbg: 254 mg/dL
  Hb: 13.2 g/dL
  Ht: 40.3%
  Lym: 67%
  MCHC: 32.7%
  MCV: 64 fL
  Mono: 3.4%
  Neu: 29.2%
  Plat: 115.4 x10_4/uL
  RBC: 630 x10_4/ul
  Ret: 8.3%
  WBC: 45.1 x10_2/uL
  KIDNEY_TOTAL: 0.7 g
  LIVER: 11.2 g
  ALT: 43.2 IU/L
  AST: 72 IU/L
  BUN: 17 mg/dL
  CRE: 0.4 mg/dL
  Ca: 11.2 mg/dL
  Cl: 102.2 meq/L
  DBIL: 0.01 mg/dL
  GLC: 192.6 mg/dL
  IP: 12 mg/dL
  K: 4 meq/L
  LDH: 100.6 IU/L
  Na: 142.2 meq/L
  PL: 172 mg/dL
  RALB: 4.3 g/dL
  TBIL: 0.042 mg/dL
  TC: 102 mg/dL
  TP: 6.2 g/dL
  gamma-GTP: 1 IU/L
1 mg/kg, 6 h, dose level Low
  TERMINAL_BW: 204.4 g
  Bas: 0%
  Eos: 0.2%
  Fbg: 250.2 mg/dL
  Hb: 13.1 g/dL
  Ht: 40.4%
  Lym: 59%
  MCHC: 32.6%
  MCV: 64.5 fL
  Mono: 3.2%
  Neu: 37.2%
  Plat: 113.5 x10_4/uL
  RBC: 627 x10_4/ul
  Ret: 6.5%
  WBC: 28.2 x10_2/uL
  KIDNEY_TOTAL: 0.5 g
  LIVER: 10.8 g
  ALT: 39 IU/L
  AST: 73.8 IU/L
  BUN: 17.4 mg/dL
  CRE: 0.4 mg/dL
  Ca: 10.9 mg/dL
  Cl: 102.8 meq/L
  DBIL: 0.008 mg/dL
  GLC: 215.8 mg/dL
  IP: 8.2 mg/dL
  K: 4.3 meq/L
  LDH: 91.4 IU/L
  Na: 138.6 meq/L
  PL: 179.4 mg/dL
  RALB: 4.4 g/dL
  TBIL: 0.038 mg/dL
  TC: 124.4 mg/dL
  TP: 6.3 g/dL
  gamma-GTP: 0 IU/L
1 mg/kg, 9 h, dose level Low
  TERMINAL_BW: 198.1 g
  Bas: 0%
  Eos: 0.2%
  Fbg: 263.4 mg/dL
  Hb: 13.4 g/dL
  Ht: 40.9%
  Lym: 55.8%
  MCHC: 32.7%
  MCV: 64.7 fL
  Mono: 1.4%
  Neu: 42.4%
  Plat: 127.4 x10_4/uL
  RBC: 633 x10_4/ul
  Ret: 7.3%
  WBC: 28.3 x10_2/uL
  KIDNEY_TOTAL: 0.5 g
  LIVER: 10.7 g
  ALT: 38.8 IU/L
  AST: 76.6 IU/L
  BUN: 19.2 mg/dL
  CRE: 0.4 mg/dL
  Ca: 10.6 mg/dL
  Cl: 102 meq/L
  DBIL: 0.006 mg/dL
  GLC: 217 mg/dL
  IP: 7.8 mg/dL
  K: 4.4 meq/L
  LDH: 96.2 IU/L
  Na: 138 meq/L
  PL: 181.6 mg/dL
  RALB: 4.7 g/dL
  TBIL: 0.038 mg/dL
  TC: 126 mg/dL
  TP: 6.8 g/dL
  gamma-GTP: 0.8 IU/L
1 mg/kg, 24 h, dose level Low
  TERMINAL_BW: 210.9 g
  Bas: 0%
  Eos: 0.8%
  Fbg: 239.6 mg/dL
  Hb: 13.8 g/dL
  Ht: 41.6%
  Lym: 61.4%
  MCHC: 33.1%
  MCV: 64.9 fL
  Mono: 4.8%
  Neu: 33%
  Plat: 122.7 x10_4/uL
  RBC: 642.2 x10_4/ul
  Ret: 5.8%
  WBC: 73.8 x10_2/uL
  KIDNEY_TOTAL: 0.5 g
  LIVER: 12 g
  ALT: 35.4 IU/L
  AST: 79.8 IU/L
  BUN: 16.4 mg/dL
  CRE: 0.4 mg/dL
  Ca: 10.9 mg/dL
  Cl: 99.8 meq/L
  DBIL: 0.016 mg/dL
  GLC: 191.8 mg/dL
  IP: 8 mg/dL
  K: 4.9 meq/L
  LDH: 110.2 IU/L
  Na: 139.2 meq/L
  PL: 219.2 mg/dL
  RALB: 4.6 g/dL
  TBIL: 0.046 mg/dL
  TC: 104.2 mg/dL
  TP: 6.4 g/dL
  gamma-GTP: 0 IU/L
